Legend:
[1] = tested on: LNCaP-Clone-FGC (Prostate Carcinoma); test: combination Emax (second highest fraction inhibited in the dose matrix, 72 h); higher = more inhibition; extreme values may be limits of the assay
Method in brief: (§1)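 After 24 hours at 37°C and 5% CO2 in 1536-well plates, cells in DMEM/F12 or RPMI plus 10% FBS received two-drug dose matrices for 72 hours. Viability came from CellTiter-Glo 2.0 luminescence and was scaled as inhibition, anchored at 0 by vehicle wells and at 1 by blank wells. Combination Emax is taken as the second-highest inhibition in the matrix, and Bliss excess as the observed combination effect less EA + EB − EA·EB, with EA and EB the single-agent effects.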

[2] = tested on: HO-1-N-1 (Oral Cavity Carcinoma); test: as above
Method in brief: as §1

[3] = tested on: MDA-MB-361 (Breast Carcinoma); test: as above
Method in brief: as §1

[4] = tested on: HCC-78 (Lung Adenocarcinoma); test: as above
Method in brief: as §1

[5] = tested on: HuP-T4 (Pancreatic Carcinoma); test: as above
Method in brief: as §1

[6] = tested on: Calu-3 (Lung Adenocarcinoma); test: as above
Method in brief: as §1

[7] = tested on: TE-9 (Esophageal Squamous Cell Carcinoma); test: as above
Method in brief: as §1

AGS (Gastric Carcinoma) = test: as above
Method in brief: as §1

[8] = tested on: Ramos-2G6-4C10 (Burkitt's Lymphoma); test: as above
Method in brief: as §1

[9] = tested on: CAL-148 (Breast Carcinoma); test: as above
Method in brief: as §1

[10] = tested on: Daoy (Other Solid Carcinomas); test: as above
Method in brief: as §1

42-MG-BA (Glioblastoma) = test: as above
Method in brief: as §1

[11] = tested on: NCI-H2085 (Non-Small Cell Lung Carcinoma); test: as above
Method in brief: as §1

[12] = tested on: DoTc2-4510 (Cervical Carcinoma); test: as above
Method in brief: as §1

[13] = tested on: LNCaP-Clone-FGC (Prostate Carcinoma); test: Bliss excess, mean over the matrix (fraction); higher = more synergy
Method in brief: as §1

[14] = tested on: LS-180 (Colorectal Carcinoma); test: as above
Method in brief: as §1

KELLY (Neuroblastoma) = test: as above
Method in brief: as §1

[15] = tested on: ME-1 (Acute Myeloid Leukemia); test: as above
Method in brief: as §1

[16] = tested on: Ramos-2G6-4C10 (Burkitt's Lymphoma); test: as above
Method in brief: as §1

[17] = tested on: RC-K8 (B-Cell Non-Hodgkin's Lymphoma); test: as above
Method in brief: as §1
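For Bliss excess, mean over the matrix in this document: after 72 h of two-drug dosing.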

| SMILES | combination Emax [1] | combination Emax [2] | combination Emax [3] | combination Emax [4] | combination Emax [5] | combination Emax [6] | combination Emax [7] | combination Emax (AGS (Gastric Carcinoma)) | combination Emax [8] | combination Emax [9] | combination Emax [10] | combination Emax (42-MG-BA (Glioblastoma)) | combination Emax [11] | combination Emax [12] | Bliss excess [13] | Bliss excess [14] | Bliss excess (KELLY (Neuroblastoma)) | Bliss excess [15] | Bliss excess [16] | Bliss excess [17] |
| --- | --- | --- | --- | --- | --- | --- | --- | --- | --- | --- | --- | --- | --- | --- | --- | --- | --- | --- | --- | --- |
| COc1nnc2ccc(N3CCC(c4ccc(OCCN5CCN(C)C(=O)[C@H]5C)cc4)CC3)nn12 [AZD5153] + C[C@@H]1COCCN1C2=NC(=NC(=C2)C3(CC3)[S@](=N)(=O)C)C4=C5C=CNC5=NC=C4 [AZD6738] (first compound max 1 µM, 7x7, partner max 10 µM) | 0.791 | 0.795 | 0.82 | 0.517 | 0.626 | 0.719 | 0.271 | 0.959 | 0.913 | 0.912 | 0.835 | 0.793 | 0.653 | 0.511 | -0.0318 | -0.0165 | -0.0107 | -0.0693 | -0.0534 | -0.0424 |
| COc1nnc2ccc(N3CCC(c4ccc(OCCN5CCN(C)C(=O)[C@H]5C)cc4)CC3)nn12 [AZD5153] + Cc1c2c(nn1C)CSCc1cc(n(C)n1)CSc1cc(c3ccccc3c1)OCCCc1c(C(=O)O)n(C)c3c-2c(Cl)ccc13 [AZD5991] (first compound max 1 µM, 7x7, partner max 1 µM) | 0.772 | 0.991 | 0.865 | 0.522 | 0.606 | 0.677 | 0.57 | 0.851 | 1 | 1 | 0.801 | 0.883 | 0.64 | 0.362 | -0.0722 | -0.0279 | 0.0357 | -0.0162 | 0.0407 | -0.0446 |
| COc1nnc2ccc(N3CCC(c4ccc(OCCN5CCN(C)C(=O)[C@H]5C)cc4)CC3)nn12 [AZD5153] + Cn1cnc2c(F)c(Nc3ccc(Br)cc3Cl)c(C(=O)NOCCO)cc21 [Selumetinib] (first compound max 1 µM, 7x7, partner max 10 µM) | 0.728 | 0.773 | 0.642 | 0.451 | 0.814 | 0.887 | 0.35 | 0.999 | 0.56 | 0.79 | 0.598 | 0.705 | 0.563 | 0.427 | -0.0583 | -0.0284 | 0.13 | -0.0302 | -0.0465 | -0.048 |
| Cc1c2c(nn1C)CSCc1cc(n(C)n1)CSc1cc(c3ccccc3c1)OCCCc1c(C(=O)O)n(C)c3c-2c(Cl)ccc13 [AZD5991] + C=CCn1c(=O)c2cnc(Nc3ccc(N4CCN(C)CC4)cc3)nc2n1-c1cccc(C(C)(C)O)n1 [AZD1775] (first compound max 1 µM, partner max 1 µM) | 0.769 | 0.812 | 0.899 | 0.331 | 0.551 | 0.197 | 0.366 | 0.781 | 1 | 1 | 0.979 | 0.986 | 0.626 | 0.523 | 0.0118 | 0.0495 | 0.0322 | 0.041 | -0.0413 | -0.0294 |
| Cc1c2c(nn1C)CSCc1cc(n(C)n1)CSc1cc(c3ccccc3c1)OCCCc1c(C(=O)O)n(C)c3c-2c(Cl)ccc13 [AZD5991] + CC1(C)CCC(CN2CCN(c3ccc(C(=O)NS(=O)(=O)c4ccc(NCC5CCOCC5)c([N+](=O)[O-])c4)c(Oc4cnc5[nH]ccc5c4)c3)CC2)=C(c2ccc(Cl)cc2)C1 [Venetoclax] (first compound max 1 µM, 7x7, partner max 1 µM) | 0.228 | 0.979 | 0.889 | 0.158 | 0.409 | 0.135 | 0.508 | 0.665 | 0.985 | 0.411 | 0.425 | 0.963 | 0.783 | 0.287 | -0.0476 | 0.0019 | 0.249 | 0.0654 | 0.0339 | -0.0142 |
| Cc1c2c(nn1C)CSCc1cc(n(C)n1)CSc1cc(c3ccccc3c1)OCCCc1c(C(=O)O)n(C)c3c-2c(Cl)ccc13 [AZD5991] + CCN(CCO)CCCOc1ccc2c(Nc3cc(CC(=O)Nc4cccc(F)c4)[nH]n3)ncnc2c1 [AZD2811] (first compound max 1 µM, 7x7, partner max 1 µM) | 0.33 | 0.993 | 0.913 | 0.31 | 0.624 | 0.17 | 0.251 | 0.51 | 1 | 1 | 0.505 | 1 | 0.863 | 0.287 | 0.0567 | 0.0652 | 0.0071 | 0.0139 | 0.141 | 0.09 |
